For this test, the target named is T1, acid sphingomyelinase (Mus musculus, UniProt Q04519).
T1 construct: from tissue; host or cells: lung homogenate of wild-type and Cftr-deficient mice
T1 sequence (Q04519 45-627): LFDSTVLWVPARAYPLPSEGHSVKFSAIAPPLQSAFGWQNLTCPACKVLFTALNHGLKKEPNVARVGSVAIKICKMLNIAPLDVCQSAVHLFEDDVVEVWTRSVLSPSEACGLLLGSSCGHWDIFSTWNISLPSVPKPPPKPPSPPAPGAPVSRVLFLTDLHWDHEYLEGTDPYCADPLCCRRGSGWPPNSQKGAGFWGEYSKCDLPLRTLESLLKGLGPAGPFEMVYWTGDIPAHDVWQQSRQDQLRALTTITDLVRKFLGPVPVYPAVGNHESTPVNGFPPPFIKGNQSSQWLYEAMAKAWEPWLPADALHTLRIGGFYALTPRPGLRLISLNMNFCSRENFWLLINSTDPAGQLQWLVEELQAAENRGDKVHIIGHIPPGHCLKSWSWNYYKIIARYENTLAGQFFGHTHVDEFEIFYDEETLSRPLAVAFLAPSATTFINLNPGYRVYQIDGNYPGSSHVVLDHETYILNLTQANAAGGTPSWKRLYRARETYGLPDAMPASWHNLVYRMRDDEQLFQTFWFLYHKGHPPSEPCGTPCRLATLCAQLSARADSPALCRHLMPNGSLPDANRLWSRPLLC
Description: Activity of acid sphingomyelinase in lung extracts of treated mice. The class given is in vivo. On the procedure:
The inhalation was carried out with the aid of an inhaler (Pariboy® SX). The liquid reservoir in this inhaler was connected to an air nozzle, whereby it was possible to produce a fine aerosol which was inhaled through a mask by the mice. For this, the noses of the experimental animals were pressed manually into the opening of the mask for 10 minutes. This permitted excellent control of the inhalation process. All mice were subjected to an inhalation process 3 times at an interval of 12 hours. The lungs were shock-frozen, homogenized under liquid nitrogen and subsequently transferred to a buffer of 250 mM sodium acetate (pH 5.0), 1.3 mM EDTA and 1% NP40. The homogenizate was then subjected to ultrasound treatment (ultrasonic processor tip sonicator) a total of three times. Subsequently, an aliquot of the samples was diluted with 250 mM sodium acetate (pH 5.0), 1.3 mM EDTA 0.1% NP40 and incubated with 0.05 μCi of [^14C]sphingomyelin per sample (52 mCi/mmol; […] The radioactive sample of [^14C]sphingomyelin was dried, resuspended in 250 mM sodium acetate (pH 5.0), 1.3 mM EDTA and 0.1% NP40 and subsequently subjected to ultrasound treatment for 10 minutes, before it was added to the homogenized samples. The samples were incubated for 30 minutes in total at about 37° C. Subsequently, the enzymatic reaction was ended by extraction (extraction with a solvent mixture of chloroform and methanol in the volume ratio chloroform/methanol 2:1). The samples were then centrifuged and an aliquot of the aqueous phase was in each case subjected to scintillation counting to determine the release of [^14C]phosphorylcholine from [^14C] sphingomyelin. Wild-type mice and Cftr-deficient mice (Cftr-knockout mice) inhaled a solution of 4 mg/l of amitriptyline, 12.5 mg/l of trimipramine, 9 mg/l of desipramine, 8 mg/l of chlorprothixene, 4.5 mg/l of fluoxetine, 5 mg/l of amlodipine and 35 mg/l of sertraline. All substances were dissolved in water or DMSO for this and subsequently diluted at least 1:100 (for DMSO: at least 1:1000) in 0.9% sodium chloride solution. The mice inhaled the solutions for 10 minutes. An inhaler (Pariboy®) was used for the inhalation. In the course of the inhalation time, approximately 2 ml of the solutions administered were atomized. The inhalation was carried out a total of three times at intervals of 12 hours. The lungs were removed 60 minutes after the last inhalation, and the activity of the acid sphingomyelinase was determined in the lung extracts. Wild-type mice and Cftr-deficient mice were in each case inhaled 1 ml of an amitriptyline solution (4 mg/l of H2O) for 20 minutes with the aid of a customary pharmacy inhalation device. The amount of amitriptyline actually administered was therefore about 4 μg. In parallel to this, other wild-type mice and Cftr-deficient mice were in each case administered 100 μl of an amitriptyline solution (2.5 g/l of H2O), so that the amount of amitriptyline actually administered in these animals was 250 μg. The injections were administered twice daily over 2 days. In the case of the inhalative treatment, the lungs of the mice were extracted 60 minutes or 12 hours after ending the inhalation, where in the case of the 12-hour experiments the inhalation was repeated after 6 hours. In the case of the mice treated by an injection solution, their lungs were removed 12 hours after the last injection.

Structures are written as SMILES.

The record followed here is patent US20100285139A1, “PHARMACEUTICAL COMPOSITION FOR THE PROPHYLAXIS AND/OR SYMPTOMATIC TREATMENT OF CYSTIC FIBROSIS” (CYCNAD GMBH & CO., KG, priority 2007, published 2010).

In the case of `CN(C)CCC=C1c2ccccc2CCc2ccccc21` [amitriptyline], the “enzyme activity of acid sphingomyelinase in lung extracts” value is, setting by setting: (Cftr-deficient mice, 12 h after intraperitoneal injection of 250 micrograms, twice daily over 2 days) 151±17 pmol/min/mg of protein; (Cftr-deficient mice, lungs extracted 60 min after inhalation of 1 ml amitriptyline solution (4 mg/l)) 148±17 pmol/min/mg of protein; (Cftr-deficient mice, lungs extracted 12 h after inhalation of 1 ml amitriptyline solution (4 mg/l)) 167±9 pmol/min/mg of protein; (wild-type mice, 12 h after intraperitoneal injection of 250 micrograms, twice daily over 2 days) 168±19 pmol/min/mg of protein; (wild-type mice, lungs extracted 60 min after inhalation of 1 ml amitriptyline solution (4 mg/l)) 176±18 pmol/min/mg of protein; (wild-type mice, lungs extracted 12 h after inhalation of 1 ml amitriptyline solution (4 mg/l)) 200±14 pmol/min/mg of protein.
